# From BindingDB's records for patent US20250346585 (Alexion Pharmaceuticals, 2025)
# Target: T1, Complement C1s subcomponent (Homo sapiens, UniProt P09871)
# T1 sequence (P09871 whole entry): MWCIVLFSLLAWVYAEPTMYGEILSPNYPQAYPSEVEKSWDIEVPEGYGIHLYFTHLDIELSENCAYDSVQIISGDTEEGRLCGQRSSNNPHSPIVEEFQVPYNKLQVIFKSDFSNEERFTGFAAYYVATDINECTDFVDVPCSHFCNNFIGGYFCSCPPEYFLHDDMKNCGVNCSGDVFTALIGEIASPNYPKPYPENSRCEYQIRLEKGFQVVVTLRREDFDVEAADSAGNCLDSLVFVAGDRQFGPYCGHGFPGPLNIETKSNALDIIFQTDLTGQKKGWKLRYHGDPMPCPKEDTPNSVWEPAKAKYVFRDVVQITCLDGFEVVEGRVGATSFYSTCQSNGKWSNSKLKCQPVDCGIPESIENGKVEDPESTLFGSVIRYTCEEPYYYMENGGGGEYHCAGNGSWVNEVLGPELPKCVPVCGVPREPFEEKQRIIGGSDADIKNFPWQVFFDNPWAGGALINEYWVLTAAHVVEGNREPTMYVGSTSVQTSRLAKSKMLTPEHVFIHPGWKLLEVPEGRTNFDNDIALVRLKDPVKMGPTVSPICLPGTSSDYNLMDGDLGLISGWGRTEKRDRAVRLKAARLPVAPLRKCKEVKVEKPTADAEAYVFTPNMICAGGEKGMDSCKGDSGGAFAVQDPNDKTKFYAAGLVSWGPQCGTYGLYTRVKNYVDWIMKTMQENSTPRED
# Experiment: Human C1s Enzyme Assay
# Method: Human complement C1s enzyme (purified from human serum, Complement Technology, Inc.) at 1.16 nM final concentration was incubated with test compound at various concentrations for 5 min at room temperature in 50 mM Tris, 1 M NaCl, pH 7.5. A synthetic substrate Z-L-Lys-SBzl and DTNB (Ellman's reagent) were added to final concentrations of 100 μM each. Absorbance at 405 nm (A405) was recorded at 30 second intervals for 30 min using a microplate spectrophotometer. IC50 values were calculated by nonlinear regression of complement C1s reaction rates as a function of test compound concentration.
row,Compound,IC50 [µM]
1,"C[C@@H](NC(=O)[C@@H]1C[C@]2(CC(F)(F)F)C[C@@H]2N1C(=O)CNC(=O)c1ccc2c(c1)-c1ccccc1C2(F)F)c1cc(C(=N)N)cs1 [US20250346585, Compound 411]",> 1
2,"C[C@@H](NC(=O)[C@H]1C[C@]2(CC(F)(F)F)C[C@@H]2N1C(=O)CNC(=O)c1ccc2c(c1)-c1ccccc1C2(F)F)c1cc(C(=N)N)cs1 [US20250346585, Compound 410]",> 1
3,"N=C(N)c1cc(CNC(=O)[C@@H]2CC3(CN2C(=O)CNC(=O)c2ccc(-c4ccccc4)cn2)OCCO3)cs1 [US20250346585, Compound 144]",< 0.1
4,"C[C@@H](NC(=O)[C@@H]1C[C@@H](S(C)(=O)=O)CN1C(=O)CNC(=O)c1ccc2sc3ccccc3c2c1)c1cc(C(=N)N)cs1 [US20250346585, Compound 332]",< 0.1
5,"CC(=O)NCCNC[C@@]12C[C@@H]1N(C(=O)CNC(=O)c1ccc3c(c1)-c1ccccc1C3(F)F)[C@H](C(=O)N[C@H](C)c1cc(C(=N)N)cs1)C2 [US20250346585, Compound 315]",< 0.1
6,"O=C(NCC(=O)N1CC2(C[C@H]1C(=O)NCc1cc(N3CCCC3=O)cs1)OCCO2)c1ccc(Oc2ccc(F)cc2)cc1 [US20250346585, Compound 290]",> 1
